Measured values taken from ChEMBL document CHEMBL1201862, “PubChem BioAssay data set” (2004).
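Results reflect a 48-hour exposure of cells in 96-well plates to compound at five concentrations. Abbreviation: GI50, concentration required for 50% inhibition of growth.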 Calls of active or inactive are those of the source. Rule as the data show it: active = GI50 up to about 1.1 µM and inactive = higher.

Columns and labels:
Assay in all cases: inhibition of tumour cell growth, NCI panel, 48 h
MDA-N = system: MDA-N
SF-295 = system: SF-295
A498 = system: A498
T47D = system: T47D
SNB-75 = system: SNB-75
SN12C = system: SN12C
MDA-MB-231 = system: MDA-MB-231
HCT-116 = system: HCT-116
NCI-H23 = system: NCI-H23
A549 = system: A549
HOP-92 = system: HOP-92
BT-549 = system: BT-549
RXF 393 = system: RXF 393
MDA-MB-435 = system: MDA-MB-435
HOP-62 = system: HOP-62
SK-MEL-5 = system: SK-MEL-5
UACC-257 = system: UACC-257
KM12 = system: KM12
CCRF-CEM = system: CCRF-CEM
MCF7 = system: MCF7

Measured: GI50

COC(=O)c1cc(O)nc(O)n1
inactive: MDA-N > 100 µM | SF-295 > 100 µM | A498 > 100 µM | T47D > 100 µM | SNB-75 > 100 µM | SN12C > 100 µM | MDA-MB-231 > 100 µM | HCT-116 > 100 µM | NCI-H23 > 100 µM | A549 > 100 µM | HOP-92 > 100 µM | BT-549 > 100 µM | RXF 393 > 100 µM | MDA-MB-435 > 100 µM | HOP-62 > 100 µM | SK-MEL-5 > 100 µM | UACC-257 > 100 µM

C[C@@H]1C(=O)O[C@H]1[C@H](O)CO
inactive: MDA-N > 100 µM | SF-295 > 100 µM | A498 > 100 µM | T47D > 100 µM | SNB-75 > 100 µM | SN12C > 100 µM | KM12 > 100 µM | HCT-116 > 100 µM | NCI-H23 > 100 µM | A549 > 100 µM | CCRF-CEM > 100 µM | HOP-92 63.1 µM | BT-549 > 100 µM | RXF 393 > 100 µM | MDA-MB-435 > 100 µM | HOP-62 > 100 µM | MCF7 > 100 µM | SK-MEL-5 > 100 µM | UACC-257 > 100 µM

N/C(=N\c1ccc(Cl)cc1)NS(=O)(=O)c1ccc(S(=O)(=O)c2ccccc2)s1
inactive: MDA-N 18.5 µM | SF-295 15.1 µM | A498 17.4 µM | T47D 17 µM | SNB-75 35.7 µM | SN12C 17.5 µM | KM12 22.8 µM | MDA-MB-231 12.9 µM | HCT-116 15.4 µM | NCI-H23 17.7 µM | A549 23.9 µM | HOP-92 19.7 µM | BT-549 17.6 µM | RXF 393 53.8 µM | HOP-62 18.1 µM | MCF7 17.2 µM | SK-MEL-5 15.8 µM | UACC-257 14.8 µM

CC(C)(C)OC(=O)n1c2ccccc2c2c(=O)nc(N3CCCCC3)sc21
inactive: MDA-N > 100 µM | SF-295 > 100 µM | A498 > 100 µM | T47D > 100 µM | SNB-75 > 100 µM | SN12C > 100 µM | KM12 > 100 µM | MDA-MB-231 > 100 µM | NCI-H23 > 100 µM | A549 > 100 µM | CCRF-CEM > 100 µM | HOP-92 > 100 µM | BT-549 > 100 µM | MDA-MB-435 > 100 µM | HOP-62 > 100 µM | SK-MEL-5 > 100 µM | UACC-257 > 100 µM

CN(C)CCNc1ncnc2[nH]c(-c3ccc4ccccc4c3)nc12
inactive: MDA-N > 100 µM | SF-295 > 100 µM | T47D > 100 µM | SN12C > 100 µM | KM12 > 100 µM | MDA-MB-231 > 100 µM | HCT-116 > 100 µM | NCI-H23 > 100 µM | A549 > 100 µM | CCRF-CEM > 100 µM | BT-549 > 100 µM | RXF 393 > 100 µM | MDA-MB-435 > 100 µM | HOP-62 > 100 µM | MCF7 > 100 µM | SK-MEL-5 > 100 µM | UACC-257 > 100 µM

COc1cc2c(cc1OC)C(=O)C1(C2)[C@H](c2ccccc2)C2C(=O)c3cc(OC)c(OC)cc3C2[C@H]1c1ccccc1 (stereo not given in full)
inactive: MDA-N > 100 µM | SF-295 > 100 µM | A498 > 100 µM | T47D 10.5 µM | SNB-75 24.8 µM | SN12C > 100 µM | KM12 > 100 µM | MDA-MB-231 > 100 µM | HCT-116 > 100 µM | NCI-H23 > 100 µM | A549 31 µM | CCRF-CEM > 100 µM | BT-549 > 100 µM | RXF 393 63.5 µM | MDA-MB-435 > 100 µM | HOP-62 > 100 µM | SK-MEL-5 > 100 µM | UACC-257 > 100 µM

O=C(Nc1ccc(Cl)cc1)NS(=O)(=O)c1coc2cc(F)ccc2c1=O
inactive: MDA-N > 100 µM | SF-295 > 100 µM | T47D > 100 µM | SNB-75 > 100 µM | SN12C > 100 µM | KM12 92 µM | MDA-MB-231 > 100 µM | HCT-116 > 10 µM | NCI-H23 > 100 µM | A549 > 100 µM | CCRF-CEM 86.3 µM | BT-549 > 100 µM | RXF 393 > 100 µM | MDA-MB-435 30.6 µM | HOP-62 > 100 µM | MCF7 > 100 µM | SK-MEL-5 > 100 µM | UACC-257 > 100 µM

N=c1oc2ccccc2cc1C(=O)Nc1ccccn1
inactive: MDA-N > 100 µM | A498 > 100 µM | T47D 43.7 µM | SNB-75 > 100 µM | SN12C > 100 µM | KM12 56.5 µM | MDA-MB-231 > 100 µM | HCT-116 51.9 µM | NCI-H23 > 100 µM | A549 > 100 µM | CCRF-CEM 44.8 µM | HOP-92 > 100 µM | BT-549 > 100 µM | RXF 393 > 100 µM | MDA-MB-435 > 100 µM | HOP-62 63 µM | SK-MEL-5 > 100 µM | UACC-257 > 100 µM

O=C(NC(Cc1c[nH]c2ccccc12)C(=O)Nc1ccc(Br)cc1)OCc1ccccc1 (stereo not given)
inactive: SF-295 9.23 µM | A498 11.4 µM | T47D 10 µM | SNB-75 14.7 µM | SN12C 9.46 µM | KM12 6.31 µM | MDA-MB-231 10.2 µM | HCT-116 9.82 µM | NCI-H23 11.8 µM | A549 9.16 µM | CCRF-CEM 3.6 µM | HOP-92 5.18 µM | BT-549 14.8 µM | RXF 393 9.33 µM | MDA-MB-435 8.83 µM | HOP-62 11 µM | MCF7 10.4 µM | SK-MEL-5 10.7 µM | UACC-257 11.3 µM

CC1(C)CNC(=O)C2(CCCO2)CNC(C)(C)CNC(=O)C2(CCCO2)CN1 (stereo not given)
inactive: SF-295 > 10 µM | T47D > 10 µM | SNB-75 > 10 µM | SN12C > 10 µM | KM12 > 10 µM | MDA-MB-231 > 10 µM | HCT-116 > 10 µM | NCI-H23 > 10 µM | A549 > 10 µM | CCRF-CEM > 10 µM | HOP-92 > 10 µM | BT-549 > 10 µM | MDA-MB-435 > 10 µM | HOP-62 > 10 µM | MCF7 > 10 µM | SK-MEL-5 > 10 µM | UACC-257 > 10 µM

COC(=O)N[C@H](C(=O)O)C(C)O[Si](C)(C)C(C)(C)C (stereo not given in full)
inactive: SF-295 > 100 µM | A498 > 100 µM | T47D > 100 µM | SN12C > 100 µM | KM12 > 100 µM | MDA-MB-231 > 100 µM | HCT-116 > 100 µM | NCI-H23 > 100 µM | A549 > 100 µM | CCRF-CEM > 100 µM | BT-549 > 100 µM | RXF 393 > 100 µM | MDA-MB-435 > 100 µM | HOP-62 > 100 µM | MCF7 > 100 µM | SK-MEL-5 > 100 µM | UACC-257 > 100 µM
